Measurements from PubChem BioAssay (NCI).
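Assay format: 96-well plates, 48-hour exposure. At the TGI there is no net growth.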

Tests used:
Test in all cases: inhibition of tumour cell growth, NCI panel, 48 h
HCT-15 colon = tested on: HCT-15 colon
HS 578T breast = tested on: HS 578T breast
SW-620 colon = tested on: SW-620 colon
NCI-H522 lung = tested on: NCI-H522 lung
786-0 renal = tested on: 786-0 renal
M14 melanoma = tested on: M14 melanoma
SR leukemia = tested on: SR leukemia
MOLT-4 leukemia = tested on: MOLT-4 leukemia
RPMI-8226 leukemia = tested on: RPMI-8226 leukemia
SN12C renal = tested on: SN12C renal
HL-60(TB) leukemia = tested on: HL-60(TB) leukemia
NCI-H226 lung = tested on: NCI-H226 lung
RXF 393 renal = tested on: RXF 393 renal
SK-MEL-5 melanoma = tested on: SK-MEL-5 melanoma
SF-539 CNS = tested on: SF-539 CNS
NCI-H23 lung = tested on: NCI-H23 lung
NCI-H460 lung = tested on: NCI-H460 lung
SF-268 CNS = tested on: SF-268 CNS
A549 NSCLC = tested on: A549 NSCLC
MCF7 breast = tested on: MCF7 breast
OVCAR-5 ovarian = tested on: OVCAR-5 ovarian
CAKI-1 renal = tested on: CAKI-1 renal
SNB-19 CNS = tested on: SNB-19 CNS
HCC-2998 colon = tested on: HCC-2998 colon
HCT-116 colon = tested on: HCT-116 colon
CCRF-CEM leukemia = tested on: CCRF-CEM leukemia
COLO 205 colon = tested on: COLO 205 colon
IGROV1 ovarian = tested on: IGROV1 ovarian
A498 renal = tested on: A498 renal
HOP-62 NSCLC = tested on: HOP-62 NSCLC
OVCAR-8 ovarian = tested on: OVCAR-8 ovarian
NCI/ADR-RES ovarian = tested on: NCI/ADR-RES ovarian
MALME-3M melanoma = tested on: MALME-3M melanoma
MDA-N = tested on: MDA-N
SK-MEL-2 melanoma = tested on: SK-MEL-2 melanoma
HT29 colon = tested on: HT29 colon
SK-MEL-28 melanoma = tested on: SK-MEL-28 melanoma
LOX IMVI melanoma = tested on: LOX IMVI melanoma
TK-10 renal = tested on: TK-10 renal
ACHN renal = tested on: ACHN renal
OVCAR-4 ovarian = tested on: OVCAR-4 ovarian
PC-3 prostate = tested on: PC-3 prostate
EKVX NSCLC = tested on: EKVX NSCLC
UACC-257 melanoma = tested on: UACC-257 melanoma
KM12 colon = tested on: KM12 colon
UO-31 renal = tested on: UO-31 renal
BT-549 breast = tested on: BT-549 breast
U251 CNS = tested on: U251 CNS
OVCAR-3 ovarian = tested on: OVCAR-3 ovarian
MDA-MB-231 breast = tested on: MDA-MB-231 breast
K-562 leukemia = tested on: K-562 leukemia
T-47D breast = tested on: T-47D breast
HOP-92 NSCLC = tested on: HOP-92 NSCLC
MDA-MB-435 = tested on: MDA-MB-435
DU-145 prostate = tested on: DU-145 prostate
SK-OV-3 ovarian = tested on: SK-OV-3 ovarian
UACC-62 melanoma = tested on: UACC-62 melanoma
SNB-75 CNS = tested on: SNB-75 CNS
SF-295 CNS = tested on: SF-295 CNS

SMILES: C=C(Br)COc1ccc2c(C)cc(=O)oc2c1
- TGI (HCT-15 colon): > 100 µM
- TGI (HS 578T breast): > 100 µM
- TGI (SW-620 colon): > 100 µM
- TGI (NCI-H522 lung): > 100 µM
- TGI (786-0 renal): > 100 µM
- TGI (M14 melanoma): > 100 µM
- TGI (SR leukemia): > 100 µM
- TGI (MOLT-4 leukemia): > 100 µM
- TGI (RPMI-8226 leukemia): > 100 µM
- TGI (SN12C renal): > 100 µM
- TGI (HL-60(TB) leukemia): > 100 µM
- TGI (NCI-H226 lung): > 100 µM
- TGI (RXF 393 renal): 81 µM
- TGI (SK-MEL-5 melanoma): 37.4 µM
- TGI (SF-539 CNS): > 100 µM
- TGI (NCI-H23 lung): > 100 µM
- TGI (NCI-H460 lung): > 100 µM
- TGI (SF-268 CNS): > 100 µM
- TGI (A549 NSCLC): > 100 µM
- TGI (MCF7 breast): 19.7 µM
- TGI (OVCAR-5 ovarian): > 100 µM
- TGI (CAKI-1 renal): > 100 µM
- TGI (SNB-19 CNS): > 100 µM
- TGI (HCC-2998 colon): > 100 µM
- TGI (HCT-116 colon): > 100 µM
- TGI (CCRF-CEM leukemia): > 100 µM
- TGI (COLO 205 colon): 16.7 µM
- TGI (IGROV1 ovarian): > 100 µM
- TGI (A498 renal): > 100 µM
- TGI (HOP-62 NSCLC): > 100 µM
- TGI (OVCAR-8 ovarian): > 100 µM
- TGI (NCI/ADR-RES ovarian): > 100 µM
- TGI (MALME-3M melanoma): > 100 µM
- TGI (MDA-N): > 100 µM
- TGI (SK-MEL-2 melanoma): > 100 µM
- TGI (HT29 colon): > 100 µM
- TGI (SK-MEL-28 melanoma): > 100 µM
- TGI (LOX IMVI melanoma): > 100 µM
- TGI (TK-10 renal): > 100 µM
- TGI (ACHN renal): > 100 µM
- TGI (OVCAR-4 ovarian): > 100 µM
- TGI (PC-3 prostate): > 100 µM
- TGI (EKVX NSCLC): > 100 µM
- TGI (UACC-257 melanoma): > 100 µM
- TGI (KM12 colon): 12.1 µM
- TGI (UO-31 renal): > 100 µM
- TGI (BT-549 breast): > 100 µM
- TGI (U251 CNS): > 100 µM
- TGI (OVCAR-3 ovarian): > 100 µM
- TGI (MDA-MB-231 breast): > 100 µM
- TGI (K-562 leukemia): > 100 µM
- TGI (T-47D breast): 87.2 µM
- TGI (HOP-92 NSCLC): > 100 µM
- TGI (MDA-MB-435): > 100 µM
- TGI (DU-145 prostate): > 100 µM

SMILES: O=CC1OC(=O)c2cc(O)c(O)c(O)c2-c2c(cc(O)c(O)c2O)C(=O)OC1C1OC(=O)c2cc(O)c(O)c(O)c2-c2c(O)c(O)c3oc(=O)c4c(c(O)c(O)c5oc(=O)c2c3c54)-c2c(cc(O)c(O)c2O)C(=O)OCC1O (configuration not stated)
- TGI (HCT-15 colon): > 100 µM
- TGI (HS 578T breast): > 100 µM
- TGI (SW-620 colon): 47.7 µM
- TGI (NCI-H522 lung): 85.7 µM
- TGI (786-0 renal): 42.6 µM
- TGI (M14 melanoma): > 100 µM
- TGI (SR leukemia): > 100 µM
- TGI (MOLT-4 leukemia): 90.1 µM
- TGI (RPMI-8226 leukemia): > 100 µM
- TGI (SN12C renal): 35.5 µM
- TGI (HL-60(TB) leukemia): > 100 µM
- TGI (NCI-H226 lung): > 100 µM
- TGI (RXF 393 renal): > 100 µM
- TGI (SK-OV-3 ovarian): > 100 µM
- TGI (SK-MEL-5 melanoma): > 100 µM
- TGI (NCI-H23 lung): > 100 µM
- TGI (NCI-H460 lung): > 100 µM
- TGI (SF-268 CNS): > 100 µM
- TGI (A549 NSCLC): > 100 µM
- TGI (MCF7 breast): 40.6 µM
- TGI (OVCAR-5 ovarian): > 100 µM
- TGI (CAKI-1 renal): 25.9 µM
- TGI (SNB-19 CNS): > 100 µM
- TGI (HCC-2998 colon): > 100 µM
- TGI (UACC-62 melanoma): > 100 µM
- TGI (HCT-116 colon): 32.6 µM
- TGI (CCRF-CEM leukemia): > 100 µM
- TGI (COLO 205 colon): > 100 µM
- TGI (IGROV1 ovarian): > 100 µM
- TGI (A498 renal): > 100 µM
- TGI (HOP-62 NSCLC): > 100 µM
- TGI (OVCAR-8 ovarian): 41.2 µM
- TGI (NCI/ADR-RES ovarian): > 100 µM
- TGI (SNB-75 CNS): 93.8 µM
- TGI (MALME-3M melanoma): > 100 µM
- TGI (MDA-N): 51.9 µM
- TGI (SK-MEL-2 melanoma): > 100 µM
- TGI (HT29 colon): 29.6 µM
- TGI (SK-MEL-28 melanoma): > 100 µM
- TGI (LOX IMVI melanoma): 29.2 µM
- TGI (ACHN renal): > 100 µM
- TGI (OVCAR-4 ovarian): 38.2 µM
- TGI (PC-3 prostate): > 100 µM
- TGI (EKVX NSCLC): > 100 µM
- TGI (UACC-257 melanoma): > 100 µM
- TGI (KM12 colon): > 100 µM
- TGI (UO-31 renal): > 100 µM
- TGI (BT-549 breast): > 100 µM
- TGI (U251 CNS): 44.8 µM
- TGI (OVCAR-3 ovarian): > 100 µM
- TGI (MDA-MB-231 breast): 37 µM
- TGI (K-562 leukemia): 71.8 µM
- TGI (T-47D breast): > 100 µM
- TGI (SF-295 CNS): 89.4 µM
- TGI (HOP-92 NSCLC): > 100 µM
- TGI (MDA-MB-435): 46.4 µM
- TGI (DU-145 prostate): > 100 µM
